What was measured:
[1] = target: Module 5 A-domain protein (Brevibacillus texasporus, UniProt Q2VQ15); assay: ATP-PPi exchange assay, Module 5 A-domain; assay type: biochemical; details: 0.5 mM amino acid, 0.2 μM protein, 37° C., 15 min
Procedure: (§1) Cloning, overexpression, and purification of His10-tagged BT A-domain proteins. DNA fragments encoding the A-domains of the BT NRPS Modules 8, 5, 7, 4 and 2 (Bt8A, Bt5A, Bt7A, Bt4A and Bt2A) were PCR-amplified and the PCR products were inserted into the His10-tag recombinant protein expression vector pET16b (Novagen). The A-domain borders were determined as defined by (Konz, et al., 1999). The expression constructs were transformed into the E.coli BL21 -AI strain (Invitrogen). Transformants were grown in L-broth at 37° C. to an A600 of 0.6 and then induced with 1 mM IPTG (isopropyl-β-D-thiogalactopyranoside) plus 0.2% L-arabinose. The cells were allowed to grow for two additional hours at 30° C. before being harvested. Purification of the His10-tag recombinant proteins was achieved using the TALON metal affinity resins (BD Biosciences) under conditions recommended in the manual with modifications. Briefly, the E. coli cells were broken by sonication. Cell lysates were cleared by centrifugation at 25,000× g for one hour. […] Eluted proteins were dialyzed against a buffer (50 mM HEPES, pH 8.0, 100 mM sodium chloride, 10 mM magnesium chloride, and 1 mM EDTA) and then analyzed with SDS PAGE plus Coomassie Blue staining. […] Concentrations of the purified proteins were determined by using the calculated molar extinction coefficient for the A280.
(§2) ATP-PPi exchange assay. […] The charcoal/water suspension was added to a scintillation vial containing 5.0 ml of scintillation fluid, and the bound radioactivity was determined by liquid scintillation counting. […]
(§3) Since a purified recombinant A-domain of an NRPS module can selectively and efficiently activate the cognate amino acid substrate of the NRPS module in an ATP-PPi exchange assay (Konz, et al., 1999; Mootz & Marahiel, 1997), ATP-PPi exchange assays have been used to experimentally establish NRPS module specificities and novel NRPS codons. […] A-domain specificities were determined in ATP-PPi exchange and aa Km assays (see Methods and Materials), and the results are shown in FIG. 5. […]

[2] = tested on: Module 2 A-domain protein; assay: ATP-PPi exchange assay, Module 2 A-domain; assay type: biochemical, Brevibacillus texasporus; details: 0.5 mM amino acid, 37° C., 15 min
Procedure: Cloning, overexpression, and purification of His10-tagged BT A-domain proteins. DNA fragments encoding the A-domains of the BT NRPS Modules 8, 5, 7, 4 and 2 (Bt8A, Bt5A, Bt7A, Bt4A and Bt2A) were PCR-amplified and the PCR products were inserted into the His10-tag recombinant protein expression vector pET16b (Novagen). The A-domain borders were determined as defined by (Konz, et al., 1999). The expression constructs were transformed into the E.coli BL21 -AI strain (Invitrogen). Transformants were grown in L-broth at 37° C. to an A600 of 0.6 and then induced with 1 mM IPTG (isopropyl-β-D-thiogalactopyranoside) plus 0.2% L-arabinose. The cells were allowed to grow for two additional hours at 30° C. before being harvested. Purification of the His10-tag recombinant proteins was achieved using the TALON metal affinity resins (BD Biosciences) under conditions recommended in the manual with modifications. Briefly, the E. coli cells were broken by sonication. Cell lysates were cleared by centrifugation at 25,000× g for one hour. His-tagged recombinant proteins were then incubated with the TALON resin, washed, and eluted with 500 mM imidazole. Eluted proteins were dialyzed against a buffer (50 mM HEPES, pH 8.0, 100 mM sodium chloride, 10 mM magnesium chloride, and 1 mM EDTA) and then analyzed with SDS PAGE plus Coomassie Blue staining. […] Concentrations of the purified proteins were determined by using the calculated molar extinction coefficient for the A280.
ATP-PPi exchange assay. ATP-PPi exchange assays were performed to determine the substrate specificity of an A-domain. ATP-PPi exchanges were assayed as previously described (Stachelhaus, et al., 1998) with minor modifications. The assay mixture contained 50 mM HEPES (pH 8.0), 100 mM NaCl, 10 mM MgCl2, 2 mM ATP, 0.5 mM amino acid, 0.05 mM PPi, 0.15 μCi tetrasodium [^32P]pyrophosphate. Exchange was initiated by addition of purified recombinant A-domain proteins to a total volume of 0.1 ml. The protein concentrations were 0.2 μM for Module 4 and Module 5 A-domains while 2 μM for Module 7 and Module 8 A-domains. After incubation at 37° C. for 15 min, the reaction was stopped by addition of 0.5 ml of Termination Mix (100 mM tetrasodium pyrophosphate, 3.5% HClO4, and 1.6% [w/v] activated charcoal). The charcoal was pelleted by centrifugation, washed first with 40 mM pyrophosphate plus 1.4% perchloric acid and then with water, and was re-suspended in 0.5 ml of water. The charcoal/water suspension was added to a scintillation vial containing 5.0 ml of scintillation fluid, and the bound radioactivity was determined by liquid scintillation counting. The apparent Km values were determined with substrate concentrations ranging from 0.1 to 10 mM.
Since a purified recombinant A-domain of an NRPS module can selectively and efficiently activate the cognate amino acid substrate of the NRPS module in an ATP-PPi exchange assay (Konz, et al., 1999; Mootz & Marahiel, 1997), ATP-PPi exchange assays have been used to experimentally establish NRPS module specificities and novel NRPS codons. Recombinant A-domains of Modules 8, 5, 7 ,4 and 2 of the BT NRPS were produced and purified as described in Methods and Materials. Almost completely soluble recombinant A-domain proteins were obtained. A-domain specificities were determined in ATP-PPi exchange and aa Km assays (see Methods and Materials), and the results are shown in FIG. 5. […]

[3] = target: Module 4 A-domain protein (Brevibacillus texasporus, UniProt Q2VQ15); assay: ATP-PPi exchange assay, Module 4 A-domain; assay type: biochemical; details: 0.5 mM amino acid, 0.2 μM protein, 37° C., 15 min
Module 4 A-domain protein, sequence (Q2VQ15 entry or part of it): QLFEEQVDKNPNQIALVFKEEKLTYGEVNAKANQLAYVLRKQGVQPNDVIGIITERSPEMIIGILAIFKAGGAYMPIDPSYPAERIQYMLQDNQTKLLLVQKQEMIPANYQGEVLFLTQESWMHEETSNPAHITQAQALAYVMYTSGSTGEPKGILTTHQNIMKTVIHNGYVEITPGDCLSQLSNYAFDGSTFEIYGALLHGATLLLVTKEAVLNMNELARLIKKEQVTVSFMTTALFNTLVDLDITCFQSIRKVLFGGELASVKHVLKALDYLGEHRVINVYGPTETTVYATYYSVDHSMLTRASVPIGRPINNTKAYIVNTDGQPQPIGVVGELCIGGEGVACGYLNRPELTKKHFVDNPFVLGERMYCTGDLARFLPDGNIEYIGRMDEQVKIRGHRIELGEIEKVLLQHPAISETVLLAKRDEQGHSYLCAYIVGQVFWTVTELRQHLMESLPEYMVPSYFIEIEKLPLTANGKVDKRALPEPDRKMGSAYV
Procedure: as §1, §2, §3

[4] = target: Module 8 A-domain protein (Brevibacillus texasporus, UniProt Q2VQ14); assay: ATP-PPi exchange assay, Module 8 A-domain; assay type: biochemical; details: 0.5 mM amino acid, 2 μM protein, 37° C., 15 min
Module 8 A-domain protein, sequence (Q2VQ14 entry or part of it): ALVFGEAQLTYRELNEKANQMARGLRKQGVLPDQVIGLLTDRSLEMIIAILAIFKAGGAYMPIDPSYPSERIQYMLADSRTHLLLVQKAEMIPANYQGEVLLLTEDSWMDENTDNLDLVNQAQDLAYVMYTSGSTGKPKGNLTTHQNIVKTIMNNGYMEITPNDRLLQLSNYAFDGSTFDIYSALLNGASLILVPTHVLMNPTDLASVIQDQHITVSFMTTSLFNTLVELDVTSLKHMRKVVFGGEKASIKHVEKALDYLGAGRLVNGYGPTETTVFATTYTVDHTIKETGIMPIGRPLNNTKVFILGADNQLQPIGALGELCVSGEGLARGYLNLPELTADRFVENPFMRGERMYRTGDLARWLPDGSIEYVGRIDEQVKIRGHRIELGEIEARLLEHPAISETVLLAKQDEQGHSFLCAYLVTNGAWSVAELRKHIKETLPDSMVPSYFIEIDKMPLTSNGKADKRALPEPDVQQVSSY
Procedure: as §1, §2, §3

straight run broilers = assay: Growth promoting Studies 3-1 and 3-2, pelleted starter feed, batteries; assay type: in vivo, chicken; details: BT1583 12 ppm, BMD 50 ppm, COB 90 ppm, alone or combined
From the text: Eight (8) study repetitions per treatment were used, again with 4 birds per pen.

[5] = target: T1, Module 7 A-domain protein (Brevibacillus texasporus, UniProt Q2VQ15); assay: ATP-PPi exchange assay, Module 7 A-domain; assay type: biochemical
T1 sequence (Q2VQ15 3560-4063): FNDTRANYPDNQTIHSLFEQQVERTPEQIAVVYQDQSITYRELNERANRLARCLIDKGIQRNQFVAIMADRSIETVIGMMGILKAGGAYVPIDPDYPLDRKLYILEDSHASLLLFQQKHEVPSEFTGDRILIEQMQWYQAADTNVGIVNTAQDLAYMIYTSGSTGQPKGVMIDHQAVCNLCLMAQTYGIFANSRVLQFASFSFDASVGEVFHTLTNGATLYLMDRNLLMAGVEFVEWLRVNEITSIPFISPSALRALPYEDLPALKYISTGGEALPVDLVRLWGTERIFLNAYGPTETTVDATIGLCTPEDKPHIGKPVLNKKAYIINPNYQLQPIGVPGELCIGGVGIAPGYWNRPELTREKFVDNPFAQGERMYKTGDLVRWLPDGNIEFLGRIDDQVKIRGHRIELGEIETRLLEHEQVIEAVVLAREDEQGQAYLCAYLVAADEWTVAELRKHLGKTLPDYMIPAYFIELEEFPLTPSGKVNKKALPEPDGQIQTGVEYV
Procedure: as §1, with “harvested.” for “harvested. Purification of the His10-tag recombinant proteins was achieved using the TALON metal affinity resins (BD Biosciences) under conditions recommended in the manual with modifications. Briefly, the E. coli cells were broken by sonication. Cell lysates were cleared by centrifugation at 25,000× g for one hour.”
as §2

Module 5 A-domain protein, sequence (Q2VQ15 entry or part of it): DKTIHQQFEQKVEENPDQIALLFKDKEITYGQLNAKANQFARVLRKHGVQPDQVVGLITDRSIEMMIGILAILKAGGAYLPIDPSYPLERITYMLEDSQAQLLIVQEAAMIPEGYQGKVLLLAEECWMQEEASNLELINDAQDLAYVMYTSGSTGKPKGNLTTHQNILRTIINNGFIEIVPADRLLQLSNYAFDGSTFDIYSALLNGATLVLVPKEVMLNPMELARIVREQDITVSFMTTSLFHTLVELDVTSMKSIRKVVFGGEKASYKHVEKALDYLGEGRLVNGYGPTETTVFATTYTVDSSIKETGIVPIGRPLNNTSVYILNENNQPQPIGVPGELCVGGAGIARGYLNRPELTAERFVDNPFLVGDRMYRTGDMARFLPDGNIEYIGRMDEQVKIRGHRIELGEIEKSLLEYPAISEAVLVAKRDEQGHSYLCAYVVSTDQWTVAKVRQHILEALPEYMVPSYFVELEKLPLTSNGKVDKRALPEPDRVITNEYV

Molecule	relative substrate activation (highest activity defined as 100%) [1] [%]	relative substrate activation (highest activity defined as 100%) [2] [%]	relative substrate activation (highest activity defined as 100%) [3] [%]	relative substrate activation (highest activity defined as 100%) [4] [%]	20-day cumulative weight gain, Mean (straight run broilers; Table 18)	21-day cumulative weight gain, estimated marginal Mean (straight run broilers; Table 20)	21-day cumulative weight gain, Duncan homogeneous subsets (straight run broilers; Table 21)	20-day cumulative feed conversion rate, Duncan homogeneous subsets (straight run broilers; Table 25)	substrate activation ([5]; 0.5 mM amino acid, 2 μM protein, 20 proteinogenic amino acids and L-Orn tested)	Km ([5]; substrate 0.1 to 10 mM, read-out: apparent Km) [µM]
CC(C)C[C@H](N)C(=O)O [L-Leu]	17	98	7							
CC(C)[C@H](N)C(=O)O [L-Val]	100	67	9	100						
Bacitracin MD [BMD, reference compound]					832.9688	832.969	832.9688	1.3397		
NCCCC[C@H](N)C(=O)O [L-Lys]				10					only amino acid that activated	1120
CC[C@H](C)[C@H](N)C(=O)O [L-Ile]	23	19	100	4						

Reference: patent US7498404B2, “Compositions, methods and uses for a novel family of peptides” (priority 2004, dated 2009)
